Results published in patent US20110104103A1, “Method of conjugating therapeutic compounds to cell targeting devices via metal complexes” (KREATECH BIOTECHNOLOGY B.V., priority 2005, published 2011).
“Also recorded” adds a separate entry of the source. One block for each molecule: values may come before it.

Legend:
[1] = test system: activated hepatic stellate cells (HSC); experiment: Immunohistochemical staining of fibrosis markers in HSC after 24 h incubation; type: cell-based; conditions: conjugates 1 mg/ml (100 μM PTX), non-targeted PTX 1 mM
Experimental: The pharmacological effects of the conjugates were tested on different cultured cell types, e.g. activated hepatic stellate cells (HSC), kidney tubular cells (HK-2 cells) or human umbilical cord endothelial cells (HUVEC). Typically, cells were incubated for 24 h at 37° C. with the conjugates. Subsequently, the cells were subjected to analyses related to pharmacological activity of the coupled drug (gene expression analysis, immunohistochemcial evaluation of effect markers), or assays related to potential cytotoxicity of the complexes (cell viability assays, apoptosis assays).
FIG. 5. […] Cells were stained for collagen type I or α-smooth muscle actin and counterstained with hematoxillin. […] Magnification 10×. One of the hallmarks of liver fibrosis is the induced expression and production of a-smooth muscle actin (aSMA) and collagen type 1 by activated HSC. These proteins were therefore selected as read-out parameters of the antifibrotic effects of the targeted PTX.

[2] = test system: IL8 gene expression in HUVEC treated with TNF; experiment: IL8 gene expression in TNF-treated HUVEC; type: cell-based, human; conditions: 10 μM
[3] = 5 mg/kg of free SB202190, 4 h after administration; cited from earlier work
[4] = test system: UUO rats; experiment: Unilateral ureteral obstruction (UUO) model of renal fibrosis; type: in vivo; conditions: day 3
Experimental: Animals were divided into 4 groups: normal rats, fibrotic control animals (vehicle, 5% glucose), TKI-LZM (25 mg/kg equiv. to 630 μg/kg TKI) and free, unconjugated TKI (630 μg/kg). TKI was dissolved in 20% hydroxylpropyl-β-cyclodextrin in water with 5% DMSO, whereas TKI-LZM was dissolved in 5% glucose. To allow unhindered uptake of the products in the kidneys, rats were injected intravenously with either of these compounds 2 h before the uretheral obstruction. Left kidneys and ureter were exposed via a flank-incision under isoflurane anesthesia after which the ureter was ligated at three sites with 4-0 silk near the hilum. After 3 days, animals were sacrificed under anesthesia and kidneys were gently flushed and harvested. Kidney cortex pieces were snap-frozen to isolate RNA as described above. Kidney pieces were fixed in 4% formalin solution in PBS to make paraffin-embedded sections for anti-α-SMA and ED-1 immunohistochemical staining and morphometric analysis.

[5] = test system: hepatic fibrosis in BDL rats; experiment: Antifibrotic effect of losartan-cisULS-M6PHSA in BDL model of liver fibrosis; type: in vivo; conditions: four daily doses
Experimental: Ten minutes after the last dose, animals were sacrificed and blood and liver samples were obtained. […] The extraction was performed by adding 3 ml of methyl butyl ether to 200 μl of liver homogenate and vortexing for 5 min. Layers were separated by centrifugation at 900×g for 5 min and the aqueous layer was frozen in liquid nitrogen. The upper organic layer was transferred to another borosilicate glass tube and evaporated completely at 60° C. The extraction procedure was repeated twice and the total residue was reconstituted in 200 μl of mobile phase. Chromatography was carried out using a C18 (C18, 5 μm, 4.6×150 mm) reversed-phase column (Surefire, Waters Inc., Milford, Mass., USA) at 40° C. with an isocratic mobile phase consisting of acetonitrile-water-trifluoroacetic acid (30:70:0.1, v/v/v; pH 2.0).
Animal experiments were performed as described above.

[6] = Organ distribution and liver losartan levels in BDL rats; type: in vivo
Experimental: The extraction was performed by adding 3 ml of methyl butyl ether to 200 μl of liver homogenate and vortexing for 5 min. Layers were separated by centrifugation at 900×g for 5 min and the aqueous layer was frozen in liquid nitrogen. The upper organic layer was transferred to another borosilicate glass tube and evaporated completely at 60° C. The extraction procedure was repeated twice and the total residue was reconstituted in 200 μl of mobile phase. Chromatography was carried out using a C18 (C18, 5 μm, 4.6×150 mm) reversed-phase column (Surefire, Waters Inc., Milford, Mass., USA) at 40° C. with an isocratic mobile phase consisting of acetonitrile-water-trifluoroacetic acid (30:70:0.1, v/v/v; pH 2.0).

[7] = biological target: T1, αvβ3-integrin expressed on the surface of HUVEC (Homo sapiens, UniProt P05106+P06756); experiment: Competitive displacement of 125I-labeled echistatin; conditions: displacement of 125I-echistatin, read-out: IC50 (binding affinity)
T1 construct: αvβ3-integrin expressed on the surface of HUVEC; endogenous in cells; host or cells: HUVEC (confluent monolayers)
Experimental: In a different experimental setup that allowed the calculation for binding constants, we explored the affinity of RGD-equipped PTK787-cisULS-albumins. ^125I-labeled echistatin was used as a radioligand for αvβ3-integrin expressed on the surface of HUVEC. Competitive binding studies were performed by coincubating using confluent monolayers of HUVEC with the radiolabeled ligand and non-radiolabeled complexes.

[8] = Platinum-related toxicity of SB202190-cisULS-LZM in normal rats; type: in vivo, Male Wistar rats
Excerpt: In addition to drug related effects, we investigated whether administration of cell targeting complexes to healthy rats induced potential platinum related toxicity. Since the kidney is one of the major sites of platinum toxicity of cytostatic compounds, we performed these studies with SB202190-cisULS-LZM which accumulates in the kidney. We investigated morphology and induction of apoptosis (TUNEL staining), as well as basic renal parameters.
In order to detect potential platinum-related toxicity of kidney directed cell targeting complexes, we evaluated SB202190-cisULS-LZM in healthy rats.
To examine the effect on renal function, serum and urine creatinine levels were determined and creatinine clearances were calculated. […] To calculate proteinuria for the SB202190-cisULS-LZM group, the mean of the urinary protein levels at different days was taken. TUNEL stainings were performed on frozen kidney sections to examine the number of apoptotic cells. In addition, we determined the platinum levels in kidneys using […] after digestion of the tissue in concentrated nitric acid for 24 h at room temperature and heating at 70° C. until the formation of clear solution.

[9] = Pharmacokinetic evaluation of kidney directed complexes in healthy rats; type: in vivo, Wistar rats
Experimental: Organ distribution studies with this type of cell targeting complexes were performed in healthy Wistar rats. All in vivo experiments were approved by the Local Committee for Care and Use of Laboratory Animals.
Rats were injected intravenously with a single dose of the SB202190-cisULS-lysozyme conjugate (16 mg/kg equivalent to 376 μg/kg of SB202190; dissolved in 5% glucose) via the penile vein. Animals were sacrificed at different time points between 1 and 72 h after administration. Blood samples were collected by heart puncture and kidneys were isolated after flushing the organs gently with saline. Serum and organs were snap-frozen into liquid nitrogen immediately. Urine samples were collected using metabolic cages and combined with the urine collected from urinary bladder after sacrificing the animals. Kidneys were weighed, homogenized (1:3 w/v in PBS, Turrax homogenization) and then stored at −80° C. Released drug amounts were estimated by HPLC analysis after extraction as described before. To estimate total drug (bound plus released), samples were treated with KSCN to release SB202190 from the ULS linker as described above and then subjected to HPLC analysis. Anti-LZM immunohistochemical staining was performed on cryostat kidney sections to detect the uptake of the conjugate in tubular cells.
Renal drug levels were assayed in KSCN-treated kidney homogenates and serum samples using HPLC methods optimized for the respective drugs. Y27632 was analyzed on a C18 reversed-phase SunFire™ column C18 using a mobile phase of water-methanol-trifluoroacetic acid (86:14:0.1, v/v/v; pH 2.0) at a flow rate of 1 ml/min. TKI was analyzed on the same column using a mobile phase consisted of water-acetonitrile-trifluoroacetic acid (91:09:0.1, v/v/v; pH 2.0) at a flow rate of 1 ml/min.

[10] = Drug release studies (stability of drug-carrier linkage); type: in vitro ADME
Experimental: The stability of the drug-carrier linkage was investigated by incubating cell targeting complexes at 37° C. under several conditions, e.g. buffers, buffers spiked with drug releasing substances or biological media.

[11] = test system: I/R rats; experiment: Unilateral ischemia/reperfusion injury (I/R) model; type: in vivo
[12] = test system: endothelial cells (HUVEC); experiment: Binding of 89Zr-radiolabeled RGD-equipped complex to endothelial cells; set-up: species or system human; conditions: 4° C. for 4 h
Experimental: The interaction of cell targeting complexes with target cells was investigated in cultured target cells. Typically, in vitro targeting studies were performed by incubating target cells with the complexes, at either 4° C. or 37° C. Binding and/or internalization of the complexes by target cells was detected by either immunohistochemical staining for the complex (e.g. anti-HSA or anti-LZM staining) or by quantification of a radioactive reporter group that had been introduced in the complex (e.g. ^125I).
Binding of RGD-equipped complexes to endothelial cells was studied using ^89Zr-radiolabeled compounds.

[13] = normal rats, mean ± SEM, SB-ULS-LZM at 24, 32, 48 and 72 h, cisplatin 3 mg/kg i.v. at 24 h
[14] = four i.v. doses, 20 mg/kg conjugate or 555 μg/kg Y27632

T1 sequence (P06756 31-889 limits assumed): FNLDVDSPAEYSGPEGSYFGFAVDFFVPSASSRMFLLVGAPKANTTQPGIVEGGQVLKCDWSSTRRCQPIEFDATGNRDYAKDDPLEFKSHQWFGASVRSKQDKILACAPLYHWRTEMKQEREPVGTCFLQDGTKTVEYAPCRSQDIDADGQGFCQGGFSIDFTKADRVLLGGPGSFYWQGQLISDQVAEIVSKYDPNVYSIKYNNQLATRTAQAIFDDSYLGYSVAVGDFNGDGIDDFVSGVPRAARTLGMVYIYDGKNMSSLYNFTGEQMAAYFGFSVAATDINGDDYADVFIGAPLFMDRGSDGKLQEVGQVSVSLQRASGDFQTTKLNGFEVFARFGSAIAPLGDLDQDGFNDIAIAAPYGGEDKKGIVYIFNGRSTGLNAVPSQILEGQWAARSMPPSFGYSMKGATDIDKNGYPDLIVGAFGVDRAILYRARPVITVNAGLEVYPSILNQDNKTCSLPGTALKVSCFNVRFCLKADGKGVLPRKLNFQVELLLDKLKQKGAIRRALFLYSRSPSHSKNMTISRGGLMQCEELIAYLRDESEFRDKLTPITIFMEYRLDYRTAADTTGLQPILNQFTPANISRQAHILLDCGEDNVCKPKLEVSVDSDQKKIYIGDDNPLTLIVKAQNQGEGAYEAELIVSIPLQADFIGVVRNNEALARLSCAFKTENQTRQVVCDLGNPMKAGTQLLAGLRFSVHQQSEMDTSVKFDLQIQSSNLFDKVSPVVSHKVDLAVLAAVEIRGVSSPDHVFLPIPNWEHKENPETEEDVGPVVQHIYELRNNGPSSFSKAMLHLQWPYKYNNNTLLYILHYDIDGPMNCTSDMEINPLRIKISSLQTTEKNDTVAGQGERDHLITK
T1 sequence (P06756 891-1048 partner limits assumed): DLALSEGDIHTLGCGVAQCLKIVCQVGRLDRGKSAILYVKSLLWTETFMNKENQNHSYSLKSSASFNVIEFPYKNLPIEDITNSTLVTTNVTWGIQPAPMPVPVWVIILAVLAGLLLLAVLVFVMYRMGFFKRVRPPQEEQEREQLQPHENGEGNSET
T1 sequence (P05106 27-788): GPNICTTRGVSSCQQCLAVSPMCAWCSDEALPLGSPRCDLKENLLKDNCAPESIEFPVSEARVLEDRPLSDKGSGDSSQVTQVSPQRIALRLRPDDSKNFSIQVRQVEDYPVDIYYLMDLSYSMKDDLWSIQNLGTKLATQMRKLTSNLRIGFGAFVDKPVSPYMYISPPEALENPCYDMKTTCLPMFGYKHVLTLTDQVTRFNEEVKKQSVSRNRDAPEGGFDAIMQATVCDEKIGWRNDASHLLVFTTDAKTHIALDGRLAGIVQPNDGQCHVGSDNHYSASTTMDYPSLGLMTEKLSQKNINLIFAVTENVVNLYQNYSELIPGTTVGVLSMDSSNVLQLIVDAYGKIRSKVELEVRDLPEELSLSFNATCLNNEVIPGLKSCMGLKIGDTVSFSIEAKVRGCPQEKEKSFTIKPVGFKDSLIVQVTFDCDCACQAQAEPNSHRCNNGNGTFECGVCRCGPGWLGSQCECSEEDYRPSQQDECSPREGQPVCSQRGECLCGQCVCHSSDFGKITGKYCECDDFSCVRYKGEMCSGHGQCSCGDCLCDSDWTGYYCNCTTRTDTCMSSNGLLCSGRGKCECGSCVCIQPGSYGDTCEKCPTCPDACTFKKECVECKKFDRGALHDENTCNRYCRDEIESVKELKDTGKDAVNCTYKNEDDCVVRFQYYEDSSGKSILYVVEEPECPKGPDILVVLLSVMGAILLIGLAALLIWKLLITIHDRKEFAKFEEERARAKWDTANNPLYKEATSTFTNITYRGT

Molecule: CC(=O)CCCCn1c(=O)c2c(ncn2C)n(C)c1=O [PTX, 3,7-dimethyl-1-(5-oxohexyl)purine-2,6-dione]
aSMA staining intensity [1]: reduced the intensity of both collagen type I production and aSMA | collagen type I staining [1]: reduced the intensity of both collagen type I production and aSMA

Molecule: Oc1ccc(-c2nc(-c3ccncc3)c(-c3ccc(F)cc3)[nH]2)cc1 [SB202190, 4-(-Fluorophenyl)-2-(4-hydroxy-phenyl)-5-(4-pyridyl)-1H-imidazole]
IL8 gene expression level after inhibition [2]: 40% | fraction distributed to the kidney [3]: 0.2%

Molecule: c1ccc(-c2n[nH]cc2-c2ccnc3ccccc23)nc1 [TKI, 3-(Pyridin-2-yl)-4-(4-quinonyl)-1H-pyrazole]
MCP-1 gene expression in kidney ([4]; single dose 25 mg/kg conjugate or 630 μg/kg TKI): did not lower the expressions of MCP-1 | expression of the fibrosis marker α-SMA ([4]; single dose): significantly decreased | infiltrated macrophages (ED-1 immunostaining) ([4]; single dose): a reduction of ED-1 immunostaining

liver losartan as % of the cumulative dose ([6]; BDL rats, 10 min after last dose): 4% | concentration at 10 min ([6]; rat, liver, oral, 5 mg/kg/day): 12100 ng/g
Molecule: CCCCc1nc(Cl)c(CO)n1Cc1ccc(-c2ccccc2-c2nn[nH]n2)cc1 [losartan]
hepatic fibrosis, Sirius Red staining [5]: Severe bridging | αSMA-positive cells in liver [5]: marked accumulation of αSMA-positive cells

IC50 [7]: 134 nM
Molecule: RGDPEG-avidin: avidin with RGD-peptide via vinylsulfone-PEG-NHS, average 5.4 RGD groups per avidin

Molecule: SB202190-cisULS-LZM
tubular cell apoptosis by TUNEL staining ([8]; as compared to untreated rats): no increase in the number of apoptotic cells | urinary protein levels ([8]; in comparison to untreated rats): an increase in urinary protein levels | TUNEL positive cells ([8]; normal rats, kidney sections, mean ± SEM, cisplatin at 24 h): 42.7 ± 18 numbers per field | Renal platinum concentration ([8]; normal rats, ICP-AAS, mean ± SEM): 37.0 ± 1.2 nmol/g | Change in body weight ([8]; normal rats, mean ± SEM): +0.3 ± 1.2 % | Creatinine clearance [8, 13]: 0.8 ± 0.03 mL/min | urinary protein levels [8, 13]: 29.6 ± 2.0 mg/day | free drug in serum / serum stability ([9]; 16 mg/kg i.v. single dose, 1-72 h): free drug was absent at all time points; also recorded: remained stable in the serum | accumulation in the kidneys ([9]; 16 mg/kg i.v., within 1 h): 20 % of the injected dose | accumulation in proximal tubular cells (anti-LZM staining) ([9]; kidney sections): accumulation of the conjugate in proximal tubular cells was confirmed | renal levels of free and bound drug over time ([9]; single dose 16 mg/kg i.v.): continuous levels of both free drug and bound drug during a three-day period | Stability / release of SB202190 ([10]; 37° C. in PBS pH 7.4 or rat serum): high stability in buffer or serum | Release of SB202190 ([10]; 37° C., kidney homogenate in PBS 1/3 (w/v)): continuously released free drug

Molecule: Y27632-cisULS-LZM: Y27632-cisULS reacted with met-LZM, 1-2 Y27632 per LZM
infiltration of macrophages, ED-1 staining morphometric score [11, 14]: significantly reduced the morphometric score of the stained areas | α-SMA staining morphometric score [11, 14]: significantly reduced the morphometric score of the stained areas

Molecule: c(RGDf(ε-S-acetylthioacetyl)K) [RGD-peptide]
displacement of binding of RGDPEG-SB202190-cisULS-HSA [12]: could be displaced

Molecule: losartan-cisULS-LZM
number of infiltrated macrophages (ED-1) ([11]; four doses 20 mg/kg/day): reduced the number of infiltrated macrophages
